By IC50 is commonly meant the concentration needed to halve the response being measured.

The text below walks through data of ChEMBL document CHEMBL6153107, “Derailment of the Biosynthesis via an Acid-Mediated Intramolecular Cyclo-rearrangement Leads to a Novel Cytochalasin Skeleton” (J Nat Prod, 2025).

Experiment [1] has as its system HeLa. Nature of the experiment: Cytotoxicity against human HeLa cells assessed as inhibition of cell growth incubated for 48 hrs by DAPI staining based high-content imaging analysis. It counts as functional.
The test system of experiment [2] is RKO. Nature of the experiment: Cytotoxicity against human RKO cells assessed as inhibition of cell growth incubated for 48 hrs by DAPI staining based high-content imaging analysis. The format is functional.
The test system of experiment [3] is HeLa. Nature of the experiment: Induction of cell cycle arrest in human HeLa cells assessed as accumulation of cells G2/M phase incubated for 48 hrs by DAPI staining based high-content imaging analysis. It counts as functional.
The subject of experiment [4] is RKO. Nature of the experiment: Induction of cell cycle arrest in human RKO cells assessed as accumulation of cells at G2/M phase incubated for 48 hrs by DAPI staining based high-content imaging analysis. It counts as functional.
Experiment [5] concerns HeLa. Nature of the experiment: Binding affinity to F-actin in human HeLa cells assessed as disruption of cytoskeleton organization by measuring transforming regular fibrous into punctuate structure at 50 uM incubated for 48 hrs by tetramethylrhodamine-phalloidin staining based confocal laser scanning microscopy. The format is cell-based.
Experiment [6] concerns RKO. Nature of the experiment: Binding affinity to F-actin in human RKO cells assessed as disruption of cytoskeleton organization by measuring transforming regular fibrous into punctuate structure at 33.5 uM incubated for 48 hrs by tetramethylrhodamine-phalloidin staining based confocal laser scanning microscopy. It counts as cell-based.
The subject of experiment [7] is HeLa. Nature of the experiment: Binding affinity to F-actin in human HeLa cells assessed as disruption of cytoskeleton organization by measuring transforming regular fibrous into punctuate structure at 2 uM incubated for 48 hrs by tetramethylrhodamine-phalloidin staining based confocal laser scanning microscopy. The format is cell-based.
Experiment [8] concerns RKO. Nature of the experiment: Binding affinity to F-actin in human RKO cells assessed as disruption of cytoskeleton organization by measuring transforming regular fibrous into punctuate structure at 1.6 uM incubated for 48 hrs by tetramethylrhodamine-phalloidin staining based confocal laser scanning microscopy. It counts as cell-based.
For experiment [9], the system named is HeLa. Nature of the experiment: Binding affinity to F-actin in human HeLa cells assessed as disruption of cytoskeleton organization by measuring transforming regular fibrous into punctuate structure at 0.9 uM incubated for 48 hrs by tetramethylrhodamine-phalloidin staining based confocal laser scanning microscopy. The format is cell-based.
The subject of experiment [10] is RKO. Nature of the experiment: Binding affinity to F-actin in human RKO cells assessed as disruption of cytoskeleton organization by measuring transforming regular fibrous into punctuate structure at 0.8 uM incubated for 48 hrs by tetramethylrhodamine-phalloidin staining based confocal laser scanning microscopy. The format is cell-based.
The subject of experiment [11] is RKO. Nature of the experiment: Binding affinity to F-actin in human RKO cells assessed as disruption of cytoskeleton organization by measuring transforming regular fibrous into punctuate structure at 50 uM incubated for 48 hrs by tetramethylrhodamine-phalloidin staining based confocal laser scanning microscopy. It counts as cell-based.
Experiment [12] has as its system HeLa. Nature of the experiment: Binding affinity to F-actin in human HeLa cells assessed as disruption of cytoskeleton organization by measuring transforming regular fibrous into punctuate structure at 27.8 uM incubated for 48 hrs by tetramethylrhodamine-phalloidin staining based confocal laser scanning microscopy. It counts as cell-based.
The subject of experiment [13] is RKO. Nature of the experiment: Binding affinity to F-actin in human RKO cells assessed as disruption of cytoskeleton organization by measuring transforming regular fibrous into punctuate structure at 16.7 uM incubated for 48 hrs by tetramethylrhodamine-phalloidin staining based confocal laser scanning microscopy. It counts as cell-based.
Experiment [14] relates to HeLa. Nature of the experiment: Binding affinity to F-actin in human HeLa cells assessed as disruption of cytoskeleton organization by measuring transforming regular fibrous into punctuate structure at 12.3 uM incubated for 48 hrs by tetramethylrhodamine-phalloidin staining based confocal laser scanning microscopy. The format is cell-based.
For experiment [15], the system named is RKO. Nature of the experiment: Binding affinity to F-actin in human RKO cells assessed as disruption of cytoskeleton organization by measuring transforming regular fibrous into punctuate structure at 11.1 uM incubated for 48 hrs by tetramethylrhodamine-phalloidin staining based confocal laser scanning microscopy. It counts as cell-based.

Activity calls are given as the source filed them. The calls are words filed in the database; no cut-off is given here.

On to `CC1=C[C@@H]2/C=C/C[C@H](C)C[C@@](C)(O)/C=C/[C@@H](O)[C@]23C(=O)N[C@@H](Cc2ccccc2)[C@@H]3[C@@H]1C`, for which the figures for the IC50 in the experiment with HeLa [1] and in the experiment on RKO [2] were over 50 µM and 33.5 µM, respectively. The Activity result with HeLa [3] and in the experiment with RKO [4] was “Dose-dependent-effect” each time. Also, the result in the experiment on HeLa [5] and with RKO [6] was Active.

Regarding `CC1=C[C@@H]2/C=C/C[C@H](C)C[C@@](C)(O)/C=C/C(=O)[C@]23C(=O)N[C@@H](Cc2ccccc2)[C@@H]3[C@@H]1C`, the concentration for half-maximal inhibition (IC50) amounted to 2 µM with HeLa [1] and 1.6 µM with RKO [2]. Further, the Activity entry with HeLa [3] and with RKO [4] was “Dose-dependent-effect” in each case. Moreover, the outcome with HeLa [7] and in the experiment with RKO [8] was Active.

Regarding `C=C1[C@@H](C)[C@H]2[C@H](Cc3ccccc3)NC(=O)[C@]23[C@H](OC(C)=O)/C=C/[C@](C)(O)C[C@@H](C)C/C=C/[C@H]3[C@@H]1O`, the IC50 was determined as 0.9 µM in the experiment with HeLa [1] and 0.8 µM in the experiment on RKO [2]. The Activity result in the experiment on HeLa [3] and in the experiment with RKO [4] was “Dose-dependent-effect” each time. Also, the result in the experiment with HeLa [9] and with RKO [10] was Active.

Regarding `CC1=C[C@@H]2[C@@H](C[C@H](C)C1)[C@@H](O)[C@H]1C=C(C)[C@@H](C)[C@H]3[C@H](Cc4ccccc4)NC(=O)[C@]31[C@@H]2O`, the results for the IC50 with HeLa [1] and with RKO [2] were over 50 µM and 47.3 µM, respectively. Moreover, the Activity entry in the experiment with HeLa [3] and in the experiment with RKO [4] was “Dose-dependent-effect” in each case. Further, the outcome in the experiment with HeLa [5] and in the experiment with RKO [11] was Active.

For `CC1=C[C@H]2[C@H]3OC(=O)[C@@]24C(=N[C@@H](Cc2ccccc2)[C@@H]4[C@@H]1C)C[C@H]1[C@H]3C[C@H](C)C[C@@]1(C)O`, the values for the concentration for half-maximal inhibition (IC50) with HeLa [1] and in the experiment on RKO [2] were 27.8 µM and 16.7 µM, respectively. The outcome with HeLa [12] and with RKO [13] was Active. For the same compound, the Activity result in the experiment with HeLa [3] and with RKO [4] was “Dose-dependent-effect” each time.

On to `CC(=O)O[C@@H]1/C=C/[C@](C)(O)C[C@@H](C)C/C=C/[C@H]2C=C(C)[C@@H](C)[C@H]3[C@H](Cc4ccccc4)NC(=O)[C@]321`, for which the concentration for half-maximal inhibition (IC50) in the experiment with HeLa [1] stood at 12.3 µM; in the experiment with RKO [2], 11.1 µM. Also, the Activity result in the experiment on HeLa [3] and in the experiment on RKO [4] was “Dose-dependent-effect” throughout. Besides, the result in the experiment with HeLa [14] and with RKO [15] was Active.

For `CC1=C[C@@H]2[C@@H]3[C@H](/C=C(/C)C[C@@H](C)C[C@H]3O)[C@@H](O)[C@]23C(=O)N[C@@H](Cc2ccccc2)[C@@H]3[C@@H]1C`, the IC50 with HeLa [1] is over 50 µM; in the experiment on RKO [2], 45.2 µM. The Activity result in the experiment on HeLa [3] and in the experiment with RKO [4] was “Dose-dependent-effect” each time. The result in the experiment on HeLa [5] and with RKO [11] was Active.
